Source: patent publication US8211906B1, “Method of inhibiting growth of neoplastic cells and inhibiting infection by administering an immune enhancer drug” (priority 2003, dated 2012)
Values after ≈ are worked out from the molar mass of the structure shown.

Columns and labels:
[1] = physchem; conditions: water
[2] = cited from earlier work
[3] = test system: spleen, bone marrow, liver, peritoneal exudates and alveolar macrophages; conditions: in vitro; cited from earlier work
[4] = topical; cited from earlier work
[5] = test system: rhinovirus 1A; conditions: in vitro, cells infected with rhinovirus 1A; cited from earlier work
[6] = test system: a number of different tumor cell types; conditions: mice implanted with tumor cells; cited from earlier work
[7] = test system: Banzi virus; conditions: monkeys; cited from earlier work
[8] = test system: Rift Valley Fever virus; conditions: monkeys; cited from earlier work
[9] = aqueous solubility; conditions: pH 7.4, aqueous buffer
[10] = test system: primary genital herpes; conditions: guinea pigs, single dose; cited from earlier work
[11] = test system: cutaneous metastatic melanoma; conditions: topical, under occlusion; cited from earlier work
[12] = test system: varicella zoster; conditions: in vitro, cells infected with varicella zoster; cited from earlier work
[13] = cited from earlier work; remark: listed apart in the source
[14] = test system: mouse spleen cell cultures; conditions: cited from earlier work
[15] = test system: respiratory syncytial virus; conditions: in vitro, cells infected with respiratory syncytial virus; cited from earlier work
[16] = cited from earlier work; remark: listed apart in the source
[17] = test system: isolated human mononuclear cells; conditions: cited from earlier work

Compound `CC(C)(C)CC(=O)OCC(=O)[C@@]12OC(C)(C)O[C@@H]1C[C@H]1[C@@H]3CCC4=CC(=O)C=C[C@]4(C)[C@@]3(F)[C@@H](O)C[C@@]12C` [Triamcinolone hexacetonide] has a solubility [1] of 3.75 µM (≈ 2 µg/mL).

For `CC(C)Cn1cnc2c(N)nc3ccccc3c21` [imiquimod, 1-(2-methylpropyl)-1H-imidazo[4,5-c]quinolin-4-amine], the systemic exposure ([2]; dermal administration) is given as “minimal”, the absorption ([2]; oral administration) is given as “rapidly absorbed” and the “time of cytokine induction after exposure” value [3] is given as 1 to 2 h. The “time of peak cytokine induction” value [3] was 8 h, the “effect on contact allergy to dinitrochlorobenzene” value [4] was “enhanced contact allergy” and the plaque reduction [5] was 50%. For the same compound, the anti-tumor effect [6] was “effective anti-tumor agent”, the “efficacy against Banzi virus” value [7] was “effective” and the “efficacy against Rift Valley Fever virus” value [8] was “effective”. The solubility [9] was 4 µM (≈ 0.961 µg/mL), the “treatment of primary genital herpes infections” value [10] was “effectively treats” and the “treatment of cutaneous metastatic melanoma” value [11] was “successfully treated”. For the same compound, the plaque reduction [12] was 50%, the “solubility in water and common organic solvents” value ([13]; free base form) was “almost insoluble” and the “solubility at physiologic pH” value ([13]; physiologic pH) was 1-2 μg/ml. The “concentration of maximum activity, induced proliferation” value [14] was 1 µg/mL, the plaque reduction [15] was 50% and the systemic toxicity ([16]; oral administration) was “significant systemic toxicity”. For the same compound, the skin irritation ([16]; topical administration of creams) was “significant skin irritation” and the “concentration of maximal interferon-alpha production” value [17] was 3 µM.
